Results: PMC9841765 (Archives of biochemistry and biophysics, 2020)

Legend:
Experiment in all cases: malachite green phosphate release
Format in all cases: biochemical
Settings in all cases: pH 8.0, 5 mM MgCl2, 200 mM KCl, 37 °C
SmNFeoB = biological target: T1, SmNFeoB (Streptococcus mutans, UniProt Q8DVC3)
T1 sequence (Q8DVC3 1-273): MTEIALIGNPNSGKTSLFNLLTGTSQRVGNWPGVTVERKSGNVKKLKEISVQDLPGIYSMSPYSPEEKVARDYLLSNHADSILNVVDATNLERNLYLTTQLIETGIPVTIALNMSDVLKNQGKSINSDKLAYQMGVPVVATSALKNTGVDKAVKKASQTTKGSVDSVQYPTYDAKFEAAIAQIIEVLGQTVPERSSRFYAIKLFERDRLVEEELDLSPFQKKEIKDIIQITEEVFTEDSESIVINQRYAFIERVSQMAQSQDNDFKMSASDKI

LmNFeoB = LmNFeoB (Listeria monocytogenes, UniProt Q8Y5F9)
BcNFeoB = biological target: T2, BcNFeoB (Bacillus cereus, UniProt Q72YQ6)
T2 sequence (Q72YQ6 1-269): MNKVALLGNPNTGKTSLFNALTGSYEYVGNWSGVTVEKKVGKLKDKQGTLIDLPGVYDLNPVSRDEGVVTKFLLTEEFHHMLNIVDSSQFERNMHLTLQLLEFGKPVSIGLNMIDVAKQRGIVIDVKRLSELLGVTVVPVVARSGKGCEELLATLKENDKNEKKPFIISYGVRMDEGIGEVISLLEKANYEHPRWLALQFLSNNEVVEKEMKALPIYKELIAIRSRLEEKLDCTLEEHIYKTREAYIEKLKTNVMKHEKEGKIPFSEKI

SaNFeoB = SaNFeoB (Staphylococcus aureus, UniProt Q5HD01)
StNFeoB = StNFeoB (Salmonella enterica, UniProt P74884)
PaNFeoB = PaNFeoB (Pseudomonas aeruginosa, UniProt Q9HW43)
EcNFeoB = biological target: T3, EcNFeoB (Escherichia coli, UniProt P33650)
T3 sequence (P33650 1-274): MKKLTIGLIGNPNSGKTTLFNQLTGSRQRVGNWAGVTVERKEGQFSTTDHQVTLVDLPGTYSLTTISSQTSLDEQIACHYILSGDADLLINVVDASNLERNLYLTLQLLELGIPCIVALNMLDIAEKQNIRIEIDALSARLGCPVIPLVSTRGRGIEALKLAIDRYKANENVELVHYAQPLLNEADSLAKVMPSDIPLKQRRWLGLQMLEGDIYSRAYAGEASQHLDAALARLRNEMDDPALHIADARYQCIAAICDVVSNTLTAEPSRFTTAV

SaNFeoB, sequence (Q5HD01 1-272): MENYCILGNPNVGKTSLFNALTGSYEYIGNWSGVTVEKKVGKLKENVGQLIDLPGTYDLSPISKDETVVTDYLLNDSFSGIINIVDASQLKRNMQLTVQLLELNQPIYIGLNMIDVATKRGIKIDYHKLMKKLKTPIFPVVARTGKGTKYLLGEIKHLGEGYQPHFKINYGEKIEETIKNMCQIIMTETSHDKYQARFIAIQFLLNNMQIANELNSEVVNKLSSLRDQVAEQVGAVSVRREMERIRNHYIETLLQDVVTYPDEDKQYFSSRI
StNFeoB, sequence (P74884 1-274): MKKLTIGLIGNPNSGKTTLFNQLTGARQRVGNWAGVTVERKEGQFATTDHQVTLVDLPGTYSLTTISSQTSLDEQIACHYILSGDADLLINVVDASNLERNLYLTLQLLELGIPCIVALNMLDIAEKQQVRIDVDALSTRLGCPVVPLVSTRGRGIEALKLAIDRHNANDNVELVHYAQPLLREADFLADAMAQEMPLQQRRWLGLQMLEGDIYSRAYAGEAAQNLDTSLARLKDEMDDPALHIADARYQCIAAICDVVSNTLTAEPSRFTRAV

SMILES | malachite green phosphate release (SmNFeoB) | malachite green phosphate release (LmNFeoB) | malachite green phosphate release (BcNFeoB) | malachite green phosphate release (SaNFeoB) | malachite green phosphate release (StNFeoB) | malachite green phosphate release (PaNFeoB) | malachite green phosphate release (EcNFeoB)
Nc1ncnc2c1ncn2[C@@H]1O[C@H](COP(=O)(O)OP(=O)(O)OP(=O)(O)O)[C@@H](O)[C@H]1O [ATP] | the NFeoB activities of S. aureus, S. mutans, and B. cereus | LmNFeoB exhibited ATP hydrolysis activity similar to the activity of VcNFeoB | the NFeoB activities of S. aureus, S. mutans, and B. cereus | the NFeoB activities of S. aureus, S. mutans, and B. cereus | – | – | –
Nc1nc2c(ncn2[C@@H]2O[C@H](COP(=O)(O)OP(=O)(O)OP(=O)(O)O)[C@@H](O)[C@H]2O)c(=O)[nH]1 [GTP] | the NFeoB activities of S. aureus, S. mutans, and B. cereus | Its GTPase activity was higher than other monovalent cations | the NFeoB activities of S. aureus, S. mutans, and B. cereus | the NFeoB activities of S. aureus, S. mutans, and B. cereus | S. Typhimurium and P. aeruginosa exhibited only GTP hydrolytic activity | S. Typhimurium and P. aeruginosa exhibited only GTP hydrolytic activity | Like E. coli, S. Typhimurium and P. aeruginosa exhibited only GTP hydrolytic activity
